# In patent US10633350B2, “Diphenyl derivatives and uses thereof” (NOVARTIS AG, priority 2017, dated 2020):
# How the values were obtained:
# FoxO3a = FoxO3a inhibition assay (GFP-FoxO3a nuclear to cytoplasmic translocation) in U2OS GFP-FoxO3a H212R reporter cells; format: cell-based; conditions: Homo sapiens, 0.5 h, serum starved overnight, 30 minutes compound treatment, ratio of nuclear to cytosolic GFP intensity, AC50 = concentration that results in 50% activation or inhibition, read-out: FoxO AC50
# Method in brief: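 Serum-starved (overnight) cells treated with compounds at various doses for 30 min, then fixed in 4% paraformaldehyde and stained overnight at 4 °C for pAkt S473 with Hoechst nuclear counterstain; high-content imaging. FoxO3a readout: nuclear/cytosolic GFP ratio (%); Akt readout: total cellular pAkt intensity (%); DMSO = 0% activity.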
# Akt = Akt activation assay (Phospho-AKT (Ser473) antibody staining) in U2OS GFP-FoxO3a H212R reporter cells; format: cell-based; conditions: Homo sapiens, 0.5 h, serum starved overnight, 30 minutes compound treatment, total cellular intensity of Phospho-Akt (Ser473) antibody staining, AC50 = concentration that results in 50% activation or inhibition
# Protocol: Phosphorylation of Akt on S473 and FoxO3a nuclear to cytoplasmic translocation were used as readouts of PI3K/Akt/mTOR pathway activation downstream of growth factor signaling.
# Reporter cell line. U2OS GFP-FoxO3a H212R reporter cell line was established by transducing U2OS cells with the retroviral plasmid pLEGFP-C1 containing FoxO3a H212R transgene and selecting for G418 resistant clones.
# Reporter assay. U2OS GFP-FoxO3a H212R cells were plated in 384-well plates at 4000 cells per well in 30 microliters of McCoy's 5A medium containing 10% FBS. On day 1 the cells were washed with serum free medium and serum starved overnight. On day 2 the cells were treated with different doses of the compounds for 30 minutes, fixed with 4% Paraformaldehyde for 1 hour and stained with Phospho-AKT (Ser473) antibody (Cell Signaling Technology, catalog #4060) overnight at 4° C. After nuclei staining with Hoechst 33342 (Life Technologies, catalog # H3570) the plates were imaged with InCell 2000 (GE Healthcare Bio-Sciences). FoxO3a inhibition activity is calculated as the ratio of nuclear to cytosolic GFP intensity in percent. Akt activation is measured as the total cellular intensity of Phospho-Akt antibody staining in percent. DMSO control is set as 0% activity.
SMILES,AC50 (FoxO3a) [nM],AC50 (Akt) [nM]
"Cc1cc(C(N)=O)nn1-c1ccc(C(C)(C)c2ccc(-c3ccc(C4(N)COC4)cc3)cc2)cc1 [Example 12, 1-(4-(2-(4′-(3-aminooxetan-3-yl)-[1,1′-biphenyl]-4-yl)propan-2-yl)phenyl)-5-methyl-1H-pyrazole-3-carboxamide]",93,283
"Cc1nc(C(N)=O)nn1-c1ccc(C(C)(C)c2ccc(-c3ccc(CN4CCCC4)cc3)cc2)cc1 [Example 13-1, 5-methyl-1-(4-(2-(4′-(pyrrolidin-1-ylmethyl)-[1,1′-biphenyl]-4-yl)propan-2-yl)phenyl)-1H-1,2,4-triazole-3-carboxamide]",128,375
Cc1nc(C(N)=O)nn1-c1ccc(C(C)(C)c2ccc(-c3ccc(S(=O)(=O)N(C)C)cc3)cc2)cc1 [Example 13-2],112,252
Cc1nc(C(N)=O)nn1-c1ccc(C(C)(C)c2ccc(-c3ccc4ncccc4c3)cc2)cc1 [Example 13-3],311,943
Cc1nc(C(N)=O)nn1-c1ccc(C(C)(C)c2ccc(-c3ccc4nccnc4c3)cc2)cc1 [Example 13-4],429,1240
Cc1nc(C(N)=O)nn1-c1ccc(C(C)(C)c2ccc(-c3ccc4ccncc4c3)cc2)cc1 [Example 13-5],147,446
Cc1nc(C(N)=O)nn1-c1ccc(C(C)(C)c2ccc(-c3ccc4scnc4c3)cc2)cc1 [Example 13-7],159,504
Cc1nc(C(N)=O)nn1-c1ccc(C(C)(C)c2ccc(-c3cnn(C)c3)cc2)cc1 [Example 13-8],664,1750
Cc1cc(-c2ccc(C(C)(C)c3ccc(-n4nc(C(N)=O)nc4C)cc3)cc2)ccn1 [Example 13-9],183,714
Cc1nc(C(N)=O)nn1-c1ccc(C(C)(C)c2ccc(-c3ccc(C#N)nc3)cc2)cc1 [Example 13-10],489,1180
Cc1nc(C(N)=O)nn1-c1ccc(C(C)(C)c2ccc(-c3cnc4c(c3)OCCN4C)cc2)cc1 [Example 13-11],416,1000
Cc1nc(C(N)=O)nn1-c1ccc(C(C)(C)c2ccc(-c3ccc(CN4CCOCC4)cc3)cc2)cc1 [Example 13-12],64,261
Cc1nnc(-c2cccc(-c3ccc(C(C)(C)c4ccc(-n5nc(C(N)=O)nc5C)cc4)cc3)c2)o1 [Example 13-13],179,506
Cc1nc(C(N)=O)nn1-c1ccc(C(C)(C)c2ccc(-c3ccc(N4CCCC4)nc3)cc2)cc1 [Example 13-14],386,1170
Cc1nc(C(N)=O)nn1-c1ccc(C(C)(C)c2ccc(-c3ccc(N4CCOCC4)nc3)cc2)cc1 [Example 13-15],114,493
Cc1nc(C(N)=O)nn1-c1ccc(C(C)(C)c2ccc(-c3ccsc3)cc2)cc1 [Example 13-16],377,926
"Cc1nc(C(N)=O)nn1-c1ccc(C(C)(C)c2ccc(-c3ccc(C(N)C(F)(F)F)cc3)cc2)cc1 (stereo not shown) [Example 14, 1-(4-(2-(4′-(1-amino-2,2,2-trifluoroethyl)-[1,1′-biphenyl]-4-yl)propan-2-yl)phenyl)-5-methyl-1H-1,2,4-triazole-3-carboxamide]",113,180
"Cc1nc(C(N)=O)nn1-c1ccc(Cc2ccc(-c3ccc(CN4CCN(C)CC4)cc3)cc2)cc1 [Example 15-1, 5-methyl-1-(4-((4′-((4-methylpiperazin-1-yl)methyl)-[1,1′-biphenyl]-4-yl)methyl)phenyl)-1H-1,2,4-triazole-3-carboxamide]",69,166
Cc1nc(C(N)=O)nn1-c1ccc(Cc2ccc(-c3cccnc3)cc2)cc1 [Example 15-2],277,888

SMILES,AC50 (FoxO3a) [nM],AC50 (Akt) [nM]
Cc1nc(C(N)=O)nn1-c1ccc(Cc2ccc(-c3ccc(C(=O)N4CCN(C)CC4)cc3)cc2)cc1 [Example 15-3],60,188
Cc1nc(C(N)=O)nn1-c1ccc(Cc2ccc(-c3ccc(CN4CCCC4)cc3)cc2)cc1 [Example 15-4],33,99
"Cc1cc(C(N)=O)nn1-c1ccc(Cc2ccc(-c3ccc(CN4CCC[C@H]4CO)cc3)cc2)cc1 [Example 16-1, (S)-1-(4-((4′-((2-(hydroxymethyl)pyrrolidin-1-yl)methyl)-[1,1′-biphenyl]-4-yl)methyl)phenyl)-5-methyl-1H-pyrazole-3-carboxamide]",33,90
Cc1cc(C(N)=O)nn1-c1ccc(Cc2ccc(-c3ccc(CNCCO)cc3)cc2)cc1 [Example 16-2],138,426
Cc1cc(C(N)=O)nn1-c1ccc(Cc2ccc(-c3ccc(CNC4CCC4)cc3)cc2)cc1 [Example 16-3],500,804
Cc1cc(C(N)=O)nn1-c1ccc(Cc2ccc(-c3ccc(CNC4COC4)cc3)cc2)cc1 [Example 16-4],41,120
Cc1cc(C(N)=O)nn1-c1ccc(Cc2ccc(-c3ccc(CN4CCCCC4)cc3)cc2)cc1 [Example 16-6],103,248
Cc1cc(C(N)=O)nn1-c1ccc(Cc2ccc(-c3ccc(CC4CCCN4CO)cc3)cc2)cc1 (stereo not shown) [Example 16-7],9,24
Cc1cc(C(N)=O)nn1-c1ccc(Cc2ccc(-c3ccc(CN4CCC4)cc3)cc2)cc1 [Example 16-8],117,300
"Cc1cc(C(N)=O)nn1-c1ccc(Cc2ccc(-c3ccc(S(=O)(=O)CCO)cc3)cc2)cc1 [Example 17, 1-(4-((4′-((2-hydroxyethyl)sulfonyl)-[1,1′-biphenyl]-4-yl)methyl)phenyl)-5-methyl-1H-pyrazole-3-carboxamide]",29,101
"Cc1cc(C(N)=O)nn1-c1ccc(Cc2ccc(-c3ccc(CN4CC(F)(F)C[C@@H]4CO)cc3)cc2)cc1 [Example 18, (R)-1-(4-((4′-((4,4-difluoro-2-(hydroxymethyl)pyrrolidin-1-yl)methyl)-[1,1′-biphenyl]-4-yl)methyl)phenyl)-5-methyl-1H-pyrazole-3-carboxamide]",95,394
"Cc1cc(C(N)=O)nn1-c1ccc(Cc2ccc(-c3ccc(C(C)(C)O)cn3)cc2)cc1 [Example 19, 1-(4-(4-(5-(2-hydroxypropan-2-yl)pyridin-2-yl)benzyl)phenyl)-5-methyl-1H-pyrazole-3-carboxamide]",71,209
"Cc1nc(-c2ccc(Cc3ccc(-n4nc(C(N)=O)cc4C)cc3)cc2)ccc1C(C)(C)O [Example 20, 1-(4-(4-(5-(2-hydroxypropan-2-yl)-6-methylpyridin-2-yl)benzyl)phenyl)-5-methyl-1H-pyrazole-3-carboxamide]",91,208
"Cc1nc(C(N)=O)nn1-c1ccc(Cc2ccc(-c3ccc(C(C)(C)O)cn3)cc2)cc1 [Example 21, 1-(4-(4-(5-(2-hydroxypropan-2-yl)pyridin-2-yl)benzyl)phenyl)-5-methyl-1H-1,2,4-triazole-3-carboxamide]",155,723
"Cc1cc(C(N)=O)nn1-c1ccc(Cc2ccc(-c3ccc(C4(O)COC4)nc3)cc2)cc1 [Example 22, 1-(4-(4-(6-(3-hydroxyoxetan-3-yl)pyridin-3-yl)benzyl)phenyl)-5-methyl-1H-pyrazole-3-carboxamide]",42,187
"Cc1cc(C(N)=O)nn1-c1ccc(Cc2ccc(-c3ccnc(C(C)(C)O)c3)cc2)cc1 [Example 23, 1-(4-(4-(2-(2-hydroxypropan-2-yl)pyridin-4-yl)benzyl)phenyl)-5-methyl-1H-pyrazole-3-carboxamide]",121,639
"Cc1cc(C(N)=O)nn1-c1ccc(Cc2ccc(-c3ccc(C(=O)N4CCNCC4)cc3)cc2)cc1 [Example 24, 5-methyl-1-(4-((4′-(piperazine-1-carbonyl)-[1,1′-biphenyl]-4-yl)methyl)phenyl)-1H-pyrazole-3-carboxamide]",33,155
"Cc1nc(C(N)=O)nn1-c1ccc(Cc2ccc(-c3ccc(C(=O)N4CCNCC4)cc3)cc2)cc1 [Example 25, 5-methyl-1-(4-((4′-(piperazine-1-carbonyl)-[1,1′-biphenyl]-4-yl)methyl)phenyl)-1H-1,2,4-triazole-3-carboxamide]",135,726
"Cc1cc(C(N)=O)nn1-c1ccc(Cc2ccc(-c3ccc(C(=O)N4CCNCC4)nc3)cc2)cc1 [Example 26, 5-methyl-1-(4-(4-(6-(piperazine-1-carbonyl)pyridin-3-yl)benzyl)phenyl)-1H-pyrazole-3-carboxamide]",75,480
